The record followed here is patent publication US9586962B2, “Disubstituted octahydropyrrolo [3,4-C] pyrroles as orexin receptor modulators” (Janssen Pharmaceutica NV, priority 2011, dated 2017).

SMILES strings stand for the structures.

The assay addresses human orexin 2 receptor (Homo sapiens (Human), UniProt O43614). Put plainly: Human orexin 2 receptor Ca2+ mobilization assay (FLIPR, PFSK cells, orexin B 100 nM). The following applies: modified Cheng-Prusoff correction, read-out: OR 2 Kb. It is filed as cell-based. The procedure:
Human Orexin 2 Receptor Ca^2+ Mobilization Assay
Cells were seeded on to 96-well Packard viewplates at a density of 50,000 cells/well and incubated overnight at 37° C., 5% CO2. The cells were dye-loaded with 4 μM Ca^2+ dye Fluo-3AM in serum-free DMEM/F-12 with 2.5 mM probenecid and incubated at 37° C., 5% CO2 for one hour. Cells were pre-incubated with compounds (diluted in DMEM/F-12) for 30 minutes before agonist (orexin B, 100 nM) stimulation. Ligand-induced Ca^2+ release was measured using a Fluorometric Imaging Plate Reader (FLIPR, Molecular Devices, Sunnyvale, Calif.). Functional responses were measured as peak fluorescence intensity minus basal. The concentration of agonist that produced a half-maximal response is represented by the EC50 value. Antagonistic potency values were converted to apparent pKB values using a modified Cheng-Prusoff correction. Apparent pKB=−log IC50/1+[conc agonist/EC50]. Data are expressed as mean±S.E.M, the designation of NT means not tested.

Sequence of human orexin 2 receptor (O43614 whole entry): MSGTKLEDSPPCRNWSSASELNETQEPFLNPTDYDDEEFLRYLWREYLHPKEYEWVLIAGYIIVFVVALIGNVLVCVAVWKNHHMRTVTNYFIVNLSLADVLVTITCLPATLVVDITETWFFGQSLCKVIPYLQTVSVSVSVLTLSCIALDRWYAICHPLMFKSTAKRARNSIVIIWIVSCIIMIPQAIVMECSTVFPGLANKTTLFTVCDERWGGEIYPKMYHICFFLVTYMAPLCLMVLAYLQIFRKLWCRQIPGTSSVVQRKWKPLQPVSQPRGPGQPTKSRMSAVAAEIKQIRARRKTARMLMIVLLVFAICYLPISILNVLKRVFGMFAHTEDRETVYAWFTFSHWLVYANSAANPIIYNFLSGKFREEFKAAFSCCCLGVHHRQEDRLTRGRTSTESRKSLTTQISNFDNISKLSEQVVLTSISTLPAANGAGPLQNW

As for `COc1cc(OC)nc(N2CC3CN(C(=O)c4ccccc4-n4nccn4)CC3C2)n1` (centres unmarked) [Example 84, 2-(4,6-Dimethoxypyrimidin-2-yl)-5-{[2-(2H-1,2,3-triazol-2-yl)phenyl]carbonyl}octahydropyrrolo[3,4-c]pyrrole], the Kb came out at 25 nM.

Take `O=C(c1ccccc1-c1nnc[nH]1)N1CC2CN(c3cnc4ccccc4n3)CC2C1` (centres unmarked) [Example 85, 2-[5-{[2-(4H-1,2,4-Triazol-3-yl)phenyl]carbonyl}hexahydropyrrolo[3,4-c]pyrrol-2(1H)-yl]quinoxaline]: the Kb was 63 nM.

Take `CCOc1ccccc1C(=O)N1CC2CN(c3nc(C)cc(C)n3)CC2C1` (centres unmarked) [Example 88, 2-(4,6-Dimethylpyrimidin-2-yl)-5-[(2-ethoxyphenyl)carbonyl]octahydropyrrolo[3,4-c]pyrrole]: the Kb was determined as 25 nM.

`Cc1cc(C)nc(N2CC3CN(C(=O)c4ccc(F)c5ccccc45)CC3C2)n1` (centres unmarked) [Example 90, 2-(4,6-Dimethylpyrimidin-2-yl)-5-[(4-fluoronaphthalen-1-yl)carbonyl]octahydro-pyrrolo[3,4-c]pyrrole]: the Kb amounted to 25 nM.

Turning to `Cc1cc(C)nc(N2CC3CN(C(=O)c4cccc5ccccc45)CC3C2)n1` (centres unmarked) [Example 93, 2-(4,6-Dimethylpyrimidin-2-yl)-5-(naphthalen-1-ylcarbonyl)octahydropyrrolo[3,4-c]pyrrole], the Kb was 40 nM.

`Cc1cc(N2CC3CN(C(=O)c4ccccc4-c4nnc[nH]4)CC3C2)nc(C(F)(F)F)n1` (centres unmarked) [Example 96, 2-[6-Methyl-2-(trifluoromethyl)pyrimidin-4-yl]-5-{[2-(4H-1,2,4-triazol-3-yl)phenyl]carbonyl}octahydropyrrolo[3,4-c]pyrrole]: the Kb was 50 nM.

`Cc1cc(N2CC3CN(C(=O)c4ccccc4-n4nccn4)CC3C2)nc(C(F)(F)F)n1` (centres unmarked) [Example 97, 2-[6-Methyl-2-(trifluoromethyl)pyrimidin-4-yl]-5-{[2-(2H-1,2,3-triazol-2-yl)phenyl]carbonyl}octahydropyrrolo[3,4-c]pyrrole]: the Kb turned out to be 16 nM.

For the compound `Cc1cc(N2CC3CN(C(=O)c4c(F)cccc4-n4nccn4)CC3C2)nc(C(F)(F)F)n1` (centres unmarked) [Example 98, 2-{[2-Fluoro-6-(2H-1,2,3-triazol-2-yl)phenyl]carbonyl}-5-[6-methyl-2-(trifluoromethyl)pyrimidin-4-yl]octahydropyrrolo[3,4-c]pyrrole], the Kb was found to be 10 nM.

As to `Cc1cc(N2CC3CN(C(=O)c4ccc(F)cc4-n4nccn4)CC3C2)nc(C(F)(F)F)n1` (centres unmarked) [Example 99, 2-{[4-Fluoro-2-(2H-1,2,3-triazol-2-yl)phenyl]carbonyl}-5-[6-methyl-2-(trifluoromethyl)pyrimidin-4-yl]octahydropyrrolo[3,4-c]pyrrole], the Kb came to 16 nM.

For `Cc1cnc(C)c(N2CC3CN(C(=O)c4c(F)cccc4-n4nccn4)CC3C2)n1` (centres unmarked) [Example 101, 2-(3,6-Dimethylpyrazin-2-yl)-5-{[2-fluoro-6-(2H-1,2,3-triazol-2-yl)phenyl]carbonyl}octahydropyrrolo[3,4-c]pyrrole], the Kb was 25 nM.

As for `Cc1ccc(-c2ncccn2)c(C(=O)N2CC3CN(c4nc(C)cc(C)n4)CC3C2)c1` (centres unmarked) [Example 102, 2-(4,6-Dimethylpyrimidin-2-yl)-5-[(5-methyl-2-pyrimidin-2-ylphenyl)carbonyl]octahydropyrrolo[3,4-c]pyrrole], the Kb worked out at 6 nM.

Turning to `Cc1ccc(-c2ncccn2)c(C(=O)N2CC3CN(c4nc(C)cnc4C)CC3C2)c1` (centres unmarked) [Example 103, 2-(3,6-Dimethylpyrazin-2-yl)-5-[(5-methyl-2-pyrimidin-2-ylphenyl)carbonyl]octahydropyrrolo[3,4-c]pyrrole], the Kb was 32 nM.

As to `Cc1cnc(C)c(N2CC3CN(C(=O)c4ccc(F)cc4-n4nccn4)CC3C2)n1` (centres unmarked) [Example 104, 2-(3,6-Dimethylpyrazin-2-yl)-5-{[4-fluoro-2-(2H-1,2,3-triazol-2-yl)phenyl]carbonyl}octahydropyrrolo[3,4-c]pyrrole], the Kb was found to be 25 nM.

As to `CN(C)c1nc(N2CC3CN(C(=O)c4c(F)cccc4-n4nccn4)CC3C2)cc(C(F)(F)F)n1` (centres unmarked) [Example 106, 4-[5-{[2-Fluoro-6-(2H-1,2,3-triazol-2-yl)phenyl]carbonyl}hexahydropyrrolo[3,4-c]pyrrol-2(1H)-yl]-N,N-dimethyl-6-(trifluoromethyl)pyrimidin-2-amine], the Kb amounted to 20 nM.

Consider `Cc1ccc(-c2ncccn2)c(C(=O)N2CC3CN(c4cc(C(F)(F)F)nc(N(C)C)n4)CC3C2)c1` (centres unmarked) [Example 108, N,N-Dimethyl-4-{5-[(5-methyl-2-pyrimidin-2-ylphenyl)carbonyl]hexahydropyrrolo[3,4-c]pyrrol-2(1H)-yl}-6-(trifluoromethyl)pyrimidin-2-amine], for which the Kb was found to be 25 nM.

Consider `CN(C)c1nc(N2CC3CN(C(=O)c4cc(F)ccc4-c4ncccn4)CC3C2)cc(C(F)(F)F)n1` (centres unmarked) [Example 109, 4-{5-[(5-Fluoro-2-pyrimidin-2-ylphenyl)carbonyl]hexahydropyrrolo[3,4-c]pyrrol-2(1H)-yl}-N,N-dimethyl-6-(trifluoromethyl)pyrimidin-2-amine], for which the Kb worked out at 25 nM.

Consider `CN(C)c1nc(N2CC3CN(C(=O)c4cc(F)ccc4-n4nccn4)CC3C2)cc(C(F)(F)F)n1` (centres unmarked) [Example 110, 4-[5-{[5-Fluoro-2-(2H-1,2,3-triazol-2-yl)phenyl]carbonyl}hexahydropyrrolo[3,4-c]pyrrol-2(1H)-yl]-N, N-dimethyl-6-(trifluoromethyl)pyrimidin-2-amine], for which the Kb worked out at 32 nM.

For the compound `CN(C)c1nc(N2CC3CN(C(=O)c4ccc(F)cc4-n4nccn4)CC3C2)cc(C(F)(F)F)n1` (centres unmarked) [Example 111, [5-(2-Dimethylamino-6-trifluoromethyl-pyrimidin-4-yl)-hexahydro-pyrrolo[3,4-c]pyrrol-2-yl]-(4-fluoro-2-[1,2,3]triazol-2-yl-phenyl)-methanone], the Kb worked out at 16 nM.

Regarding `Cc1ccc(-c2ncccn2)c(C(=O)N2CC3CN(c4cc(C)nc(C(F)(F)F)n4)CC3C2)c1` (centres unmarked) [Example 112, 2-[(5-Methyl-2-pyrimidin-2-ylphenyl)carbonyl]-5-[6-methyl-2-(trifluoromethyl)pyrimidin-4-yl]octahydropyrrolo[3,4-c]pyrrole], the Kb came out at 20 nM.

In the case of `O=C(c1cc(F)ccc1-c1ncccn1)N1CC2CN(c3nccc(-c4ccccc4)n3)CC2C1` (centres unmarked) [Example 113, 2-[(5-Fluoro-2-pyrimidin-2-ylphenyl)carbonyl]-5-(4-phenylpyrimidin-2-yl)octahydropyrrolo[3,4-c]pyrrole], the Kb was found to be 63 nM.

`CN(C)c1nc(N2CC3CN(C(=O)c4c(F)cccc4-c4ncccn4)CC3C2)cc(C(F)(F)F)n1` (centres unmarked) [Example 116, 4-{5-[(2-Fluoro-6-pyrimidin-2-ylphenyl)carbonyl]hexahydropyrrolo[3,4-c]pyrrol-2(1H)-yl}-N,N-dimethyl-6-(trifluoromethyl)pyrimidin-2-amine]: the Kb amounted to 13 nM.

As for `Cc1cc(N2CC3CN(C(=O)c4c(F)cccc4-c4ncccn4)CC3C2)nc(C(F)(F)F)n1` (centres unmarked) [Example 117, 2-[(2-Fluoro-6-pyrimidin-2-ylphenyl)carbonyl]-5-[6-methyl-2-(trifluoromethyl)pyrimidin-4-yl]octahydropyrrolo[3,4-c]pyrrole], the Kb came out at 8 nM.

`Cc1cc(N(C)C)nc(N2CC3CN(C(=O)c4ccccc4-n4nccn4)CC3C2)n1` (centres unmarked) [Example 119, N,N,6-Trimethyl-2-[5-{[2-(2H-1,2,3-triazol-2-yl)phenyl]carbonyl}hexahydropyrrolo[3,4-c]pyrrol-2(1H)-yl]pyrimidin-4-amine]: the Kb came out at 13 nM.

For `Cc1cc(N2CC3CN(C(=O)c4ccccc4-n4nccn4)CC3C2)nc(N(C)C)n1` (centres unmarked) [Example 120, N,N,4-Trimethyl-6-[5-{[2-(2H-1,2,3-triazol-2-yl)phenyl]carbonyl}hexahydropyrrolo[3,4-c]pyrrol-2(1H)-yl]pyrimidin-2-amine], the Kb was 13 nM.

For the compound `CN(C)c1nc(N2CC3CN(C(=O)c4ccccc4-n4nccn4)CC3C2)cc(C(F)(F)F)n1` (centres unmarked) [Example 121, N,N-Dimethyl-4-[5-{[2-(2H-1,2,3-triazol-2-yl)phenyl]carbonyl}hexahydropyrrolo[3,4-c]pyrrol-2(1H)-yl]-6-(trifluoromethyl)pyrimidin-2-amine], the Kb was determined as 13 nM.

In the case of `Cc1ccc(-n2nccn2)c(C(=O)N2CC3CN(c4nc(C)cnc4C)CC3C2)c1` (centres unmarked) [Example 123, [5-(3,6-Dimethyl-pyrazin-2-yl)-hexahydro-pyrrolo[3,4-c]pyrrol-2-yl]-(5-methyl-2-[1,2,3]triazol-2-yl-phenyl)-methanone], the Kb is 79 nM.

On to `CCOc1ccc2ccccc2c1C(=O)N1CC2CN(c3nccc(-c4ccccc4)n3)CC2C1` (centres unmarked) [Example 126, 2-[(2-Ethoxynaphthalen-1-yl)carbonyl]-5-(4-phenylpyrimidin-2-yl)octahydro pyrrolo[3,4-c]pyrrole], for which the Kb was found to be 100 nM.

As for `Cc1ccc(-n2nccn2)c(C(=O)N2CC3CN(c4nccc(-c5ccccc5)n4)CC3C2)c1` (centres unmarked) [Example 127, 2-{[5-Methyl-2-(2H-1,2,3-triazol-2-yl)phenyl]carbonyl}-5-(4-phenylpyrimidin-2-yl)octahydropyrrolo[3,4-c]pyrrole], the Kb came out at 20 nM.

For the compound `COc1cc(OC)nc(N2CC3CN(C(=O)c4cc(C)ccc4-n4nccn4)CC3C2)n1` (centres unmarked) [Example 129, 2-(4,6-Dimethoxypyrimidin-2-yl)-5-{[5-methyl-2-(2H-1,2,3-triazol-2-yl)phenyl]carbonyl}octahydropyrrolo[3,4-c]pyrrole], the Kb was determined as 100 nM.
